# Measured values reported in ChEMBL document CHEMBL1201862, “PubChem BioAssay data set” (2004).
# The source made the active and inactive calls.
# Legend:
# HeLa = assay: ATP-based viability loss in HeLa cells – cell-based, CellTiter-Glo luminescence, cherry-pick samples, cytotoxicity control for MITF activator project, dose response (AID 540259); format: functional; conditions: Homo sapiens
# A-375 = assay: MITF: Counter assay: A375 proliferation Measured in Cell-Based System Using Plate Reader - 2084-03_Inhibitor_Dose_DryPowder_Activity. [Related pubchem assays (depositor defined):AID488944]; format: functional; conditions: Homo sapiens
# [1] = molecular target: T1, Microphthalmia-associated transcription factor (Homo sapiens, UniProt O75030); assay: reducers of TRPM1 reporter luminescence, concentration series – cell-based, SK-MEL-5, cherry-picked, set 3, MITF inhibitor project, dose response (AID 493073); format: functional;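 also: SK-MEL-5 melanoma cells with luciferase driven by the MITF target TRPM1 promoter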
# T1 sequence (O75030 whole entry): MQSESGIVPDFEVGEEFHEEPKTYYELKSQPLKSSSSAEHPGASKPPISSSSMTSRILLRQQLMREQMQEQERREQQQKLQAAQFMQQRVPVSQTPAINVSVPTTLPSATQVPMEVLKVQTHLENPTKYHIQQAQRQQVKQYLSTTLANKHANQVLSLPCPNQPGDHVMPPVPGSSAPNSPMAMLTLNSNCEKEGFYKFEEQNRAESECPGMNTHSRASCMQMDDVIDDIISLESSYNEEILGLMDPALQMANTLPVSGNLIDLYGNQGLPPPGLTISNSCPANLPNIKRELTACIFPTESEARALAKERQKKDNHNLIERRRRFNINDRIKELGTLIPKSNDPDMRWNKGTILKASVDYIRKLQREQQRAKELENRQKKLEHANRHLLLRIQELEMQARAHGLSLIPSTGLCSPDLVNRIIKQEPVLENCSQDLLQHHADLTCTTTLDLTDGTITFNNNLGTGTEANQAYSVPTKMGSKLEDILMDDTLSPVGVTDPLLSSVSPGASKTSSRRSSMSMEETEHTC
# Cytochrome P450 2D6 = Cytochrome P450 2D6 (Homo sapiens, UniProt P10635);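 also: CYP2D6 member of a cytochrome P450 panel assay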
# Cytochrome P450 2C9 = Cytochrome P450 2C9 (Homo sapiens, UniProt P11712)
# Cytochrome P450 1A2 = molecular target: T2, Cytochrome P450 1A2 (Homo sapiens, UniProt P05177);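 also: PubChem cytochrome P450 panel assay, CYP1A2 panel member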
# T2 sequence (P05177 whole entry): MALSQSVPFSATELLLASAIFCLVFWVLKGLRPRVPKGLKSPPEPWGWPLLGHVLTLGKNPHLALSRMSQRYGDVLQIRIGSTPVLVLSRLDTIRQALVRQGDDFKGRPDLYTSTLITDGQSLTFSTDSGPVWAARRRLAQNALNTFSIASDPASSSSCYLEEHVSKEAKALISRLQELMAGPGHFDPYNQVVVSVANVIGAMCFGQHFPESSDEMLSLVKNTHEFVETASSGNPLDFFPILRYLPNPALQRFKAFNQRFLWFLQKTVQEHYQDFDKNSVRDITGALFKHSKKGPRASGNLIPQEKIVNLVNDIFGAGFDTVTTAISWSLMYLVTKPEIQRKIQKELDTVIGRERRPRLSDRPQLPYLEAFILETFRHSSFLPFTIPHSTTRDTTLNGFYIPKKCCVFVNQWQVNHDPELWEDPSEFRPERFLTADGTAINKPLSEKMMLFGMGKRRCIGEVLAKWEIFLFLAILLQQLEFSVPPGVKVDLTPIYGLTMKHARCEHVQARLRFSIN
# Protein Tat = molecular target: T3, Protein Tat (Human immunodeficiency virus type 1 group M subtype B (isolate HXB2)(HIV-1), UniProt P04608); format: functional;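 also: tat binding to TAR RNA read out by fluorescence polarization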
# T3 sequence (P04608 whole entry): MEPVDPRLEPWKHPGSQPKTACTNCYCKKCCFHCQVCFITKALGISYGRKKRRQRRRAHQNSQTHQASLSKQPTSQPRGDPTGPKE
# [2] = viability loss in THP-1 monocytes – THP-1 cells, cytotoxicity control for Vif-APOBEC3G degradation inhibitor project, dose response (AID 1117359); format: functional; conditions: THP-1
# [3] = molecular target: T4, Carboxy-terminal domain RNA polymerase II polypeptide A small phosphatase 1 (Homo sapiens, UniProt Q9GZU7); assay: CTDSP1 inhibitors, concentration-response, biochemical, absorbance readout, ultra-high-throughput screen actives (AID 540297); format: functional
# T4 sequence (Q9GZU7 whole entry): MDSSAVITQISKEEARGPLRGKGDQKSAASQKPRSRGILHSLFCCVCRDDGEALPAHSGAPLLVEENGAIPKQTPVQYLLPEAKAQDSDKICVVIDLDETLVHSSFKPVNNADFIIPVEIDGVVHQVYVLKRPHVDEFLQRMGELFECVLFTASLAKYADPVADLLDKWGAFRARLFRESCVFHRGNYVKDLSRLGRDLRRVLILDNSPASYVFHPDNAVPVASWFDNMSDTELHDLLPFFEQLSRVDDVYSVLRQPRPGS
# [4] = molecular target: T5, Ubiquitin-conjugating enzyme E2 N (Homo sapiens, UniProt P61088); format: functional
# T5 sequence (P61088 whole entry): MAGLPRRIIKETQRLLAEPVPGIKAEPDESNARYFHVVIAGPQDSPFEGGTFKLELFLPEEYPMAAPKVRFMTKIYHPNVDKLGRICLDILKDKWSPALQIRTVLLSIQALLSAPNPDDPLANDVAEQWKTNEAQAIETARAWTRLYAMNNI
# Bcl-2-related protein A1 = molecular target: T6, Bcl-2-related protein A1 (Mus musculus, UniProt Q07440); format: functional;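 also: confirmatory dose–response counterscreen on Bfl-1, used to check hits from a UBC13 polyubiquitin inhibitor campaign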
# T6 sequence (Q07440 whole entry): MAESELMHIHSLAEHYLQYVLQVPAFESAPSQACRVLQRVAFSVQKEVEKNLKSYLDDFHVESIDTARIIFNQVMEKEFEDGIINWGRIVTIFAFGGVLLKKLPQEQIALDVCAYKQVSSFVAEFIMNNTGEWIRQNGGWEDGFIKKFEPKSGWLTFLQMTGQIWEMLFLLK
# [5] = molecular target: T7, DNA repair and recombination protein RAD54-like (Homo sapiens, UniProt Q92698); assay: RAD54 Holliday junction migration blockers – biochemical, fluorescence, cherry-picked samples, dose series, confirmation (AID 651657); format: functional
# T7 sequence (Q92698 whole entry): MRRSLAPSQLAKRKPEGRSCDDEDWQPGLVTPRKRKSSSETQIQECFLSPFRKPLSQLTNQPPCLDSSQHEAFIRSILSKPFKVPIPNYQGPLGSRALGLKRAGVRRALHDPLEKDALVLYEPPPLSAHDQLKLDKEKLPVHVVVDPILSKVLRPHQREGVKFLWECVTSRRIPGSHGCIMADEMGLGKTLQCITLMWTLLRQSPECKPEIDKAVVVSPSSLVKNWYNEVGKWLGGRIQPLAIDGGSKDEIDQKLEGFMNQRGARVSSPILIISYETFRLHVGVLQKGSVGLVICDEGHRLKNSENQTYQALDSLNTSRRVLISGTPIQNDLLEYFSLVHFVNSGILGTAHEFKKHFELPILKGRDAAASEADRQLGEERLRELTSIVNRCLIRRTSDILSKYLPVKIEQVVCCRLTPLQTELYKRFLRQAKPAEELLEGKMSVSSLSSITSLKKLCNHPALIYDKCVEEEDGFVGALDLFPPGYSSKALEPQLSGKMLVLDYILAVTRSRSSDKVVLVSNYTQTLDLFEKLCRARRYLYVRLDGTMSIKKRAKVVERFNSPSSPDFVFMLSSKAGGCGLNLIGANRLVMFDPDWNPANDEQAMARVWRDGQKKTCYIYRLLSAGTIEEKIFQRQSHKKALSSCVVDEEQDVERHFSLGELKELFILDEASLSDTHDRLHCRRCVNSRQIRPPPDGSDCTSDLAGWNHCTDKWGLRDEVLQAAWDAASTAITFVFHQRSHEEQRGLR
# [6] = activation of miR-122 Renilla sensor silencing – cell-based, Huh7 psiCHECK-miR122, Renilla luciferase, cherry-picked, dose response (AID 651956); format: functional;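 also: huh7 hepatoma cells stably carrying a psiCHECK-2 miR-122 sensor plasmid; renilla luciferase signal reporting endogenous miR-122 activity after 48 h compound exposure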
# [7] = molecular target: T5, Ubiquitin-conjugating enzyme E2 N; format: functional; remark: listed apart in the source
# Tumor necrosis factor = Tumor necrosis factor (Homo sapiens, UniProt P01375); assay: analog potency on TNFa NF-kB signaling – cell-based, revised, SAR follow-up (AID 2337); format: functional
# HEK293 [8] = assay: cells; conditions: Homo sapiens
# HEK293 [9] = assay: EBV LMP1 TES2 canonical NF-kB signalling blockers – cell-based, HEK293, luciferase, cherry-pick, dose response (AID 588343); format: functional; conditions: Homo sapiens
# [10] = molecular target: T8, Replicative DNA helicase DnaB (Mycobacterium tuberculosis, UniProt P9WMR3); assay: DnaB intein splicing inhibitors, dose response, biochemical, cell-free fluorescence (AID 449749); format: functional
# T8 sequence (P9WMR3 whole entry): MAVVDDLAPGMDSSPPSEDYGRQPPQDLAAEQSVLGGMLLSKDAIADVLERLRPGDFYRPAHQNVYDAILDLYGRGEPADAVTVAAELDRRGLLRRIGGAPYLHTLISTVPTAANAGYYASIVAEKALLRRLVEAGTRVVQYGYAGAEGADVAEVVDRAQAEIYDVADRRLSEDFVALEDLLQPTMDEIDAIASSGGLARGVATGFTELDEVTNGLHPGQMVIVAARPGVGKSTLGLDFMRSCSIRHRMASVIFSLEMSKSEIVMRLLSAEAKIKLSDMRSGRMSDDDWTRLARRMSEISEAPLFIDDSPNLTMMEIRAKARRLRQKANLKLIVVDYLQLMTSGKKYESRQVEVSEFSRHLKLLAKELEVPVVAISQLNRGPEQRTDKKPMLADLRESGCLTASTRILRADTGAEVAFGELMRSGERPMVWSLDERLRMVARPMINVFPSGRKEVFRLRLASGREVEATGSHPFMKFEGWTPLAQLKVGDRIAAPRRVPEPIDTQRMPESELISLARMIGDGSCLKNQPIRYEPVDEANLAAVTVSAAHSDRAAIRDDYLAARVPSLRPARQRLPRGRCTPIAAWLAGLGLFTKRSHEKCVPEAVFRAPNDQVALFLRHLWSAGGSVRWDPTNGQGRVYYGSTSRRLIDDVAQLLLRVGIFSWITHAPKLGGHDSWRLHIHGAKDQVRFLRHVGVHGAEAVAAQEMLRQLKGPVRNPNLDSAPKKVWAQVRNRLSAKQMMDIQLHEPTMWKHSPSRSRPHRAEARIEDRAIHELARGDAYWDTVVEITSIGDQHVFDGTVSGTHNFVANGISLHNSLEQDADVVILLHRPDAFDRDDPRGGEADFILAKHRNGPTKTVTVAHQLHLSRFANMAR
# Protein RecA = molecular target: T9, Protein RecA (Mycobacterium tuberculosis, UniProt P9WHJ3); assay: Fluorescence Cell-Free Homogeneous Dose Retest to Identify Inhibitors of RecA-Intein Splicing Activity. [Related pubchem assays (depositor defined):AID2097, AID2223, AID489010, AID492950]; format: functional
# T9 sequence (P9WHJ3 whole entry): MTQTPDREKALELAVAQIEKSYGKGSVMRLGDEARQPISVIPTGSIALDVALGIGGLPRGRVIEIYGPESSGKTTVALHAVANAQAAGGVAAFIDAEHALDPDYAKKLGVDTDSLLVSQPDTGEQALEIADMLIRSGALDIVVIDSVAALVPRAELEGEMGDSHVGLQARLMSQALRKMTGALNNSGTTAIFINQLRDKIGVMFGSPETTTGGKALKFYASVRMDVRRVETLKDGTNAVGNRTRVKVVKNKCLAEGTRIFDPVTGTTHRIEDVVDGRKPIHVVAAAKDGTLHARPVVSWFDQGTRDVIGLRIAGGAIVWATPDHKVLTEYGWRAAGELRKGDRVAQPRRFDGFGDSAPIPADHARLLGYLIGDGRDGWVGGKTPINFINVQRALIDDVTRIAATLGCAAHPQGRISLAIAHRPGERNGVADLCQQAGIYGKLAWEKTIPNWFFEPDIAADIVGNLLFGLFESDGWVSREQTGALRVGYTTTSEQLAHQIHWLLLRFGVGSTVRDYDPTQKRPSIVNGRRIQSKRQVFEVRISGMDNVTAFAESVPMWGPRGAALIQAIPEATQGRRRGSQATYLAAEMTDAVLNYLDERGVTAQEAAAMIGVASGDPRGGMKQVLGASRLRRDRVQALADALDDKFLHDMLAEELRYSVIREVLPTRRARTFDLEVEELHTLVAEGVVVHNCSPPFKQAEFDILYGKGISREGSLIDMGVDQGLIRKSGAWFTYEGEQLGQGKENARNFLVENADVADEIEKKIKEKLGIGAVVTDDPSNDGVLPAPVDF
# [11] = molecular target: FAD-linked sulfhydryl oxidase ALR (Homo sapiens, UniProt P55789); assay: ALR-catalysed DTT oxidation blockers – biochemical, H2O2 detection, luminescence, cherry-pick, dose response (AID 493248)
# Chain of FAD-linked sulfhydryl oxidase ALR (P55789 whole entry): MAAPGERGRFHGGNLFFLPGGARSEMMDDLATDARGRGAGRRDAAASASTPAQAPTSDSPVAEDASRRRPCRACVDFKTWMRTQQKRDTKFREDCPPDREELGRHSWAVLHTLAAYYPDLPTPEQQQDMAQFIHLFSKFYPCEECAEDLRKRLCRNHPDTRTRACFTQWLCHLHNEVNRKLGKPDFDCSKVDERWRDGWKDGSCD
# Chain of Cytochrome P450 2D6 (P10635 whole entry): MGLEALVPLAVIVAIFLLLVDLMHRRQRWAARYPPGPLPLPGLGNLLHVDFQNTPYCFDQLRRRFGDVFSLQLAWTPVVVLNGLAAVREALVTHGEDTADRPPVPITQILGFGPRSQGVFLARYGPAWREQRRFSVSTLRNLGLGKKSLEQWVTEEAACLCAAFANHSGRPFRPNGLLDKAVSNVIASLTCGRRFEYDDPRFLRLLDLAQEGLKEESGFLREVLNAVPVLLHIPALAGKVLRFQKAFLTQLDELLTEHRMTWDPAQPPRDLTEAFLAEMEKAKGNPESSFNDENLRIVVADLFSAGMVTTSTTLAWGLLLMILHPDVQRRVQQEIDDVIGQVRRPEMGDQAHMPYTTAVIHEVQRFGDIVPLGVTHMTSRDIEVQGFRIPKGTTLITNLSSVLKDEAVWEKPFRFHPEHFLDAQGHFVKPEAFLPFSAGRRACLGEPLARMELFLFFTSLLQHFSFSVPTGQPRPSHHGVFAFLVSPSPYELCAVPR
# Chain of Cytochrome P450 2C9 (P11712 whole entry): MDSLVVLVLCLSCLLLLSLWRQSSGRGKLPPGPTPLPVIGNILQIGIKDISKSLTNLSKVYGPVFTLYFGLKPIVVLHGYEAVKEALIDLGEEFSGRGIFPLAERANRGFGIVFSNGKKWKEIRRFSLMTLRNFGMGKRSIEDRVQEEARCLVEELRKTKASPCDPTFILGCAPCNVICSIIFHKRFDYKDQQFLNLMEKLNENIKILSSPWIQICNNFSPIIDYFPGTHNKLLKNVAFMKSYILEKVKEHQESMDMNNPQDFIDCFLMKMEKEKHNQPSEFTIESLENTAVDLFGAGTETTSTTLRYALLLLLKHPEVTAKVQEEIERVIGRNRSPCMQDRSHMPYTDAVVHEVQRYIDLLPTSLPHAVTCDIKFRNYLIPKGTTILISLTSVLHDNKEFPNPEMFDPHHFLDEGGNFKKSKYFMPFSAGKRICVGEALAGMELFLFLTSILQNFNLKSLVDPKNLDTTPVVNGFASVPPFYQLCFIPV
# Chain of Tumor necrosis factor (P01375 whole entry): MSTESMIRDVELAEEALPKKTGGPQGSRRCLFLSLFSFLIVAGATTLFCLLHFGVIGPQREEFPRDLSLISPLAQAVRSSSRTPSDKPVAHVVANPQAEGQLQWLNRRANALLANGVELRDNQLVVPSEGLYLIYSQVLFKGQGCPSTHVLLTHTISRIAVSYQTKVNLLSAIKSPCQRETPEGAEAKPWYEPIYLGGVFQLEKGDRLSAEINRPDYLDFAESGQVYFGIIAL
compound,measurement,setting,value
O=C(Nc1ccc(-c2nc3cccnc3s2)cc1)c1ccc(Cl)nc1,AC50,HeLa,201 µM (active)
Cc1cc(C)cc(NS(=O)(=O)c2ccc3c(c2)c(=O)n(C)c(=O)n3C)c1,AC50,A-375,17.3 µM (active)
same,AC50,[1],4.67 µM (active)
CCOC(=S)SCC(=O)O,AC50,Cytochrome P450 2D6,inconclusive
CC(=O)c1c(C(C)=O)c(C)n(NC(=O)c2ccccc2Cl)c1C,AC50,Cytochrome P450 2C9,inconclusive
same,AC50,Cytochrome P450 2D6,inconclusive
COc1ccc(OC)c2nc(O)c(CCNS(=O)(=O)c3ccc(C)cc3)cc12,AC50,Cytochrome P450 1A2,12.6 µM (inconclusive)
same,AC50,Cytochrome P450 2D6,inconclusive
CC(=O)N(\C=C/C=C/C=C1\Sc2ccccc2C1=O)c1ccccc1,IC50,Protein Tat,> 100 µM (active)
same,AC50,A-375,50.7 µM (active)
same,AC50,[1],8 µM (active)
same,CC50,[2],> 40 µM (active)
COc1cc(NC(=O)c2ccc3c(c2)C(=O)N(CCC(C)C)C3=O)c(C(=O)O)cc1OC,IC50,[3],7.04 µM (active)
C=CCc1ccccc1OCC(O)CN1CCN(CCN2C(=O)c3cccc4cccc(c34)C2=O)CC1 (stereo not given),IC50,[4],17.7 µM (active)
same,IC50,Bcl-2-related protein A1,> 20 µM (inactive)
same,AC50,[5],9.3 µM (active)
same,AC50,[6],8.26 µM (active)
same,IC50,[7],17.2 µM (active)
CCCC(=O)Nc1nc(-c2ccccc2)ns1,AC50,HeLa,64.7 µM (active)
CN(C)c1ccc(NC(=O)c2ccc(CN3CCCCC3)cc2)cc1,IC50,Tumor necrosis factor,> 20 µM (inactive)
same,IC50,HEK293 [8],> 20 µM (inactive)
CC(C)(C)c1ccc(C(=O)O/N=C(\N)c2cccc([N+](=O)[O-])c2)cc1,IC50,HEK293 [8],> 20 µM (inactive)
O=C(CSc1nc2sc3c(c2c(=O)n1-c1ccccc1)CCCC3)N/N=C/c1ccccc1C(=O)O,IC50,[3],9.27 µM (active)
Cc1cc(Sc2nnc(/N=C/N(C)C)s2)c2ccccc2n1,IC50,[4],11 µM (active)
same,AC50,HEK293 [9],2.9 µM (active)
same,AC50,[10],39.8 µM (active)
same,EC50,Protein RecA,10.3 µM (active)
same,IC50,Bcl-2-related protein A1,> 20 µM (inactive)
same,AC50,[11],0.801 µM (active)
same,IC50,[7],8.88 µM (active)
